“And” between values parts separate entries of the source, which are not always exact repeats. Identical values can stand only once. Toxic doses and inconclusive results are not listed. How the source made its calls: active means survival T/C of 150% or more; inactive means T/C below 125% in these data.
Tested on: P388 leukemia ip, CD2F1 mice, survival T/C
Assay: NCI In Vivo Anticancer Drug Screen. Data for tumor model P388 Leukemia (intraperitoneal) in CD2F1 (CDF1) mice
Details: endpoint: median survival time, higher = longer survival
How it was run: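 Mice carrying the transplanted tumor received test compound or vehicle. Survival was recorded in each group, and the value is the treated-group measurement divided by that of the vehicle-treated control group.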

[1] = dose: 50.0 mg/kg/injection, schedule: Q01DX005 (ip), vehicle: Klucel (hydroxypropylcellulose) (HPC)
[2] = dose: 100.0 mg/kg/injection, schedule: Q01DX005 (ip), vehicle: Klucel (hydroxypropylcellulose) (HPC)
[3] = dose: 200.0 mg/kg/injection, schedule: Q01DX005 (ip), vehicle: Klucel (hydroxypropylcellulose) (HPC)
[4] = dose: 12.5 mg/kg/injection, schedule: Q01DX005 (ip), vehicle: saline with Tween-80
[5] = dose: 25.0 mg/kg/injection, schedule: Q01DX005 (ip), vehicle: saline with Tween-80
[6] = dose: 50.0 mg/kg/injection, schedule: Q01DX005 (ip), vehicle: saline with Tween-80
[7] = dose: 100.0 mg/kg/injection, schedule: Q01DX009 (ip), vehicle: saline sonified
[8] = dose: 25.0 mg/kg/injection, schedule: Q01DX009 (ip), vehicle: saline with Tween-80
[9] = dose: 50.0 mg/kg/injection, schedule: Q01DX009 (ip), vehicle: saline with Tween-80

Measured: T/C

CCc1nc(N)nc(N)c1-c1ccc2nnn(O)c2c1
inactive: [1] 98 % of control | [2] 96 % of control | [3] 105 % of control

c1ccc(Cc2ncnc3nc[nH]c23)cc1
inactive: dose: 2.5 mg/kg/injection, schedule: Q01DX009 (ip), vehicle: saline with Tween-80 111 % of control | dose: 5.0 mg/kg/injection, schedule: Q01DX009 (ip), vehicle: saline with Tween-80 111 % of control | dose: 10.0 mg/kg/injection, schedule: Q01DX009 (ip), vehicle: saline with Tween-80 111 % of control | dose: 20.0 mg/kg/injection, schedule: Q01DX009 (ip), vehicle: saline with Tween-80 105 % of control and 107 % of control and 110 % of control | dose: 40.0 mg/kg/injection, schedule: Q01DX009 (ip), vehicle: saline with Tween-80 98 % of control and 103 % of control | dose: 80.0 mg/kg/injection, schedule: Q01DX009 (ip), vehicle: saline with Tween-80 110 % of control and 111 % of control and 91 % of control | dose: 160.0 mg/kg/injection, schedule: Q01DX009 (ip), vehicle: saline with Tween-80 95 % of control

CCCCCCCCCCCCCCCC(=O)N(C(C)CCCN(CC)CC)C(C)CCCN(CC)CC (stereo not drawn)
inactive: dose: 1.56 mg/kg/injection, schedule: Q01DX009 (ip), vehicle: water 98 % of control | dose: 3.13 mg/kg/injection, schedule: Q01DX009 (ip), vehicle: water 100 % of control | dose: 6.25 mg/kg/injection, schedule: Q01DX009 (ip), vehicle: water 99 % of control | dose: 12.5 mg/kg/injection, schedule: Q01DX009 (ip), vehicle: water 92 % of control

CCOC(=O)C(C)C(=O)C(C)N1C(=O)c2ccccc2C1=O (stereo not drawn)
inactive: dose: 25.0 mg/kg/injection, schedule: Q04DX003 (ip), vehicle: other 102 % of control | dose: 50.0 mg/kg/injection, schedule: Q04DX003 (ip), vehicle: other 96 % of control | dose: 100.0 mg/kg/injection, schedule: Q04DX003 (ip), vehicle: other 93 % of control | dose: 200.0 mg/kg/injection, schedule: Q04DX003 (ip), vehicle: other 93 % of control | dose: 400.0 mg/kg/injection, schedule: Q04DX003 (ip), vehicle: other 91 % of control

CC(=O)/C(=C\c1ccc(Cl)c(Cl)c1)C(=O)C(C)CN(C)C (stereo not drawn)
inactive: [4] 119 % of control and 120 % of control | [5] 118 % of control | [6] 115 % of control and 116 % of control and 121 % of control

CC(=O)Oc1ccc(C2c3c(n(C(C)=O)c4ccccc34)C(=O)NN2C(C)=O)cc1 (stereo not drawn)
inactive: [1] 100 % of control | [2] 109 % of control | [3] 112 % of control

Cc1nc2c(cnn2C)c(=O)n1-c1cccc(Cl)c1
inactive: [1] 98 % of control | [2] 100 % of control | [3] 87 % of control

COc1cc(C=Nc2cccc(F)c2)ccc1N(CCCl)CCCl
inactive: dose: 0.25 mg/kg/injection, schedule: Q01DX009 (ip), vehicle: other 109 % of control | dose: 0.5 mg/kg/injection, schedule: Q01DX009 (ip), vehicle: other 113 % of control | dose: 1.0 mg/kg/injection, schedule: Q01DX009 (ip), vehicle: other 122 % of control

CCN1C(=O)C(N2CCCCC2)S/C1=C\C(=O)O (stereo not drawn)
inactive: dose: 50.0 mg/kg/injection, schedule: Q01DX009 (ip), vehicle: Klucel (hydroxypropylcellulose) (HPC) 97 % of control | dose: 100.0 mg/kg/injection, schedule: Q01DX009 (ip), vehicle: Klucel (hydroxypropylcellulose) (HPC) 110 % of control | dose: 200.0 mg/kg/injection, schedule: Q01DX009 (ip), vehicle: Klucel (hydroxypropylcellulose) (HPC) 107 % of control

Cc1n[nH]c(=O)[nH]c1=O
inactive: dose: 100.0 mg/kg/injection, schedule: Q04DX003 (ip), vehicle: Klucel (hydroxypropylcellulose) (HPC) 100 % of control | dose: 200.0 mg/kg/injection, schedule: Q04DX003 (ip), vehicle: Klucel (hydroxypropylcellulose) (HPC) 100 % of control | dose: 400.0 mg/kg/injection, schedule: Q04DX003 (ip), vehicle: Klucel (hydroxypropylcellulose) (HPC) 90 % of control

C/C=C/CC(C)C(O)C1C(=O)NC(CC)C(=O)N(C)CC(=O)N(C)C(CC(C)C)C(=O)NC(C(C)C)C(=O)N(C)C(CC(C)C)C(=O)NC(C)C(=O)NC(C)C(=O)N(C)C(CC(C)C)C(=O)N(C)C(CC(C)C)C(=O)N(C)C(C(C)C)C(=O)N1C (stereo not drawn)
inactive: dose: 15.0 mg/kg/injection, schedule: Q01DX009 (ip), vehicle: Klucel (hydroxypropylcellulose) (HPC) 106 % of control | dose: 30.0 mg/kg/injection, schedule: Q01DX009 (ip), vehicle: Klucel (hydroxypropylcellulose) (HPC) 109 % of control | dose: 60.0 mg/kg/injection, schedule: Q01DX009 (ip), vehicle: Klucel (hydroxypropylcellulose) (HPC) 116 % of control | dose: 120.0 mg/kg/injection, schedule: Q01DX009 (ip), vehicle: Klucel (hydroxypropylcellulose) (HPC) 109 % of control

CO[C@H]1/C=C/O[C@@]2(C)Oc3c(C)c(O)c4c(O)c(c(/C=N/N5C(C)CN(Cc6ccccc6)CC5C)c(O)c4c3C2=O)NC(=O)/C(C)=C\C=C\[C@H](C)[C@H](O)[C@@H](C)[C@@H](O)[C@@H](C)[C@H](OC(C)=O)[C@@H]1C (stereo partly drawn)
inactive: [7] 90 % of control | dose: 200.0 mg/kg/injection, schedule: Q01DX009 (ip), vehicle: saline sonified 95 % of control

CSc1ncc(Br)c(Sc2nc(N)nc3nc[nH]c23)n1
inactive: dose: 12.5 mg/kg/injection, schedule: Q01DX009 (ip), vehicle: saline with Tween-80 95 % of control | [8] 86 % of control

COC(=O)c1c([As](C)C)n[n]([Sn]([CH3])([CH3])[CH3])c1C(=O)OC
inactive: dose: 6.25 mg/kg/injection, schedule: Q04DX003 (ip), vehicle: saline 88 % of control | dose: 12.5 mg/kg/injection, schedule: Q04DX003 (ip), vehicle: saline 99 % of control

CCCCCC12OCC(C)(C)N1O2 (stereo not drawn)
inactive: dose: 60.0 mg/kg/injection, schedule: Q01DX005 (ip), vehicle: saline 100 % of control | dose: 120.0 mg/kg/injection, schedule: Q01DX005 (ip), vehicle: saline 109 % of control | dose: 240.0 mg/kg/injection, schedule: Q01DX005 (ip), vehicle: saline 103 % of control

Cc1csc(C)[n+]1C
inactive: dose: 25.0 mg/kg/injection, schedule: Q01DX009 (ip), vehicle: saline sonified 100 % of control | dose: 50.0 mg/kg/injection, schedule: Q01DX009 (ip), vehicle: saline sonified 100 % of control | [7] 90 % of control

CN(CC#CC#CCN(C)c1ccccc1)c1ccccc1
inactive: [6] 102 % of control | dose: 100.0 mg/kg/injection, schedule: Q01DX005 (ip), vehicle: saline with Tween-80 102 % of control | dose: 200.0 mg/kg/injection, schedule: Q01DX005 (ip), vehicle: saline with Tween-80 102 % of control

O=C(O)C1C(C(=O)O)C1c1ncnc2nc[nH]c12 (stereo not drawn)
inactive: dose: 25.0 mg/kg/injection, schedule: Q04DX003 (ip), vehicle: saline 99 % of control and 100 % of control | dose: 50.0 mg/kg/injection, schedule: Q04DX003 (ip), vehicle: saline 100 % of control and 101 % of control | dose: 100.0 mg/kg/injection, schedule: Q04DX003 (ip), vehicle: saline 98 % of control and 103 % of control and 100 % of control | dose: 200.0 mg/kg/injection, schedule: Q04DX003 (ip), vehicle: saline 103 % of control and 104 % of control | dose: 400.0 mg/kg/injection, schedule: Q04DX003 (ip), vehicle: saline 100 % of control and 99 % of control

CC1(C)CC(OC(=O)CCC(=O)OC2CC(C)(C)N(O)C(C)(C)C2)CC(C)(C)N1O
inactive: dose: 50.0 mg/kg/injection, schedule: Q01DX009 (ip), vehicle: suspension in saline 100 % of control | dose: 100.0 mg/kg/injection, schedule: Q01DX009 (ip), vehicle: suspension in saline 100 % of control | dose: 200.0 mg/kg/injection, schedule: Q01DX009 (ip), vehicle: suspension in saline 96 % of control

C/C(=N\NC(=O)c1ccncc1)c1cccc(/C(C)=N/NC(=O)c2ccncc2)n1.O=S(=O)([O-])[O-].[Fe+2]
inactive: [4] 97 % of control | [5] 100 % of control | [6] 87 % of control and 95 % of control

CCOCN(COCC)c1ccccn1
inactive: [8] 100 % of control | [9] 105 % of control and 116 % of control

O=C(/C=C/c1ccccc1)OCC1=C[C@@H](O)[C@@H]2C=CO[C@@H](OC3OC(CO)C(O)C(O)C3O)[C@H]12 (stereo partly drawn)
inactive: dose: 12.5 mg/kg/injection, schedule: Q01DX005 (ip), vehicle: Klucel (hydroxypropylcellulose) (HPC) 100 % of control | dose: 25.0 mg/kg/injection, schedule: Q01DX005 (ip), vehicle: Klucel (hydroxypropylcellulose) (HPC) 93 % of control | [1] 112 % of control | [2] 118 % of control | [3] 115 % of control

CN(C)c1ccc(C=C2C(=O)NC(=O)NC2=O)cc1
inactive: [8] 118 % of control | [9] 113 % of control | dose: 100.0 mg/kg/injection, schedule: Q01DX009 (ip), vehicle: saline with Tween-80 116 % of control | dose: 200.0 mg/kg/injection, schedule: Q01DX009 (ip), vehicle: saline with Tween-80 106 % of control
